Where two headings read alike, the source gives them in different places.
Key:
[1] = tested on: licking/biting behavior after injection of 2.5% formalin in the plantar surface of the rat's paw; assay: Formalin test (persistent pain model), licking/biting behavior, with isobolographic analysis; type: in vivo, rat (Sprague Dawley); details: for percentage of inhibition of phase II (% antinociception) / ED30 for the inhibition of phase II (experimental): single dose; for percentage of inhibition of phase II (% antinociception): 2.5% formalin; for Oral administration ED30: formalin test, dose producing 30% reduction of control response, mean ± SD of the estimate; for ED30 for the inhibition of phase II (experimental): oral, phase II of formalin test, unit not given
Excerpt: In the present invention referred to the combination paracetamol:amitriptyline, the pharmacodynamic rationality was based on the knowledge of the actions of both drugs on the nociceptive pathways considering the multiple sites and mechanisms operating on specific targets, as well as their adverse effects and pharmacokinetic variables. […] This responds to the need for the use of integral systems in which peripheral activity, spinal transmission, modulating systems and suprasegmental systems of the active global network that leads to the perception of pain can interact (Raffa, R B et al., 2010. J Pain 11: 701-709). The experiments were designed in young rats (8-10 weeks, Sprague Dawley, males, 168-240 g, CENPALAB, Havana, Cuba) and divided into several groups n=6-7 each, which received increasing doses of both drugs independent and combinations, to evaluate the effect as a percentage (%) of antinociception at single doses in the formalin test compared to the vehicle-treated group. This test is considered a standard persistent pain model for the study of animal nociception, widely used (Okuda, K. et al., 2001. Pain 92: 107-15). A biphasic nociceptive behavior has been described in this test, the first phase or nociceptive is interpreted as a consequence of the direct activation of the peripheral endings of the nociceptors by the chemical irritant. While the second, tonic or late phase is interpreted as the result of the acute inflammatory response, as well as the peripheral and central sensitization produced by the sustained activation of C fibers (Coderre, T J et al., 1990. Brain Res. 535: 155-8). This phase mimics the changes in synaptic plasticity that occur during persistent pain that could progress to chronicity, which is why it received the greatest attention in our experiments. The period between the two phases of the response is identified as a phase of latency in which the activity diminishes or practically ceases, this effect being attributed to the participation of the mechanisms of central endogenous pain modulation (Dubuisson, D. and, Dennis, S G 1977. Pain 4: 161-74; Omote, K. et al., 1998. Brain Res. 814: 194-8). The time course of the antinociceptive response to individual drugs and combinations was constructed by mapping the mean time of the licking/biting as a function of the time of each phase. These values were transformed into percentage of antinociception that express the percentage of inhibition of the behavior with respect to the control of the particular phase according to the formula: % antinociception=((x−x1)/x)*100. Where X=average time of licking/bite of the control group treated with vehicle, X1=time of licking/biting of each animal of the experimental group (for phase I licking time in 5 minutes, for phase II average of the time of 15 to 45 minutes per animal). In the case that X1 was greater than X, a value of 0 was assigned to % antinociception. A value close to 0% means that the behavior is similar to that of the control group and a value close to 100% means that there was no nocidefensive behavior (Argelles, C. F. et al., 2002. Anesthesiology 96: 921-5). The antihyperalgesic effect of amitriptyline has been recognized in neural damage conditions. […] One of the proposals to explain these discrepancies has been the ability of amitriptyline to increase serotonergic signaling, which has multiple subtypes of receptors, some low and others with high affinity, with heterogeneous and even opposite actions distributed at different levels of the nociceptive pathways. […] However, 5-HT2A and 5-HT3, 5-HT4 and 5-HT7 localized pre-synaptically facilitate it. […] As a consequence, the most integrated licking/biting behavior was recorded and doses of amitriptyline (0.1, 1, 3, 10 mg/kg, p.o., AMT) were used for the dose-response curve study (FIG. 1). […]

[2] = tested on: mechanical allodynia in the ipsilateral hindpaw of CCI rats; assay: Sciatic nerve chronic constriction injury (CCI) model, mechanical allodynia (von Frey filaments), with isobolographic analysis; type: in vivo, rat (Sprague Dawley); details: for MPE, mechanical allodynia: day 14 post-CCI; for ED50: Rattus norvegicus
Excerpt: (§1) The favorable results at a single dose in phase II of this algesymmetric test provide evidence that allows us to move towards a neuropathic pain model to study the possible combination at repeated doses. […] The CCI model has a high sensitivity (88%) for the prediction of efficacy in controlled clinical trials (Kontinen, V K and Meert, T F 2003. In: Dostrovsky, J O, Carr, D B, Koltzenburg, M. editors. the 10th World Congress on Pain, Seattle: IASP Press, p. 489-98). Once the model was reproduced, the threshold of removal of the injured hindpaw was measured by the stimulation with the von Frey filaments (mechanical allodynia) and by the stimulation with an electronic von Frey (mechanical hypernociception). The measurements were performed under baseline conditions and at 7 days post-CCI (hyperalgesic peak in the model), at which time the experimental groups were conformed (n=6-7 per group) to proceed with the dose-response curve study of amitriptyline. In this way, establish the ED30 or ED50 depending on the % of maximum possible effect (MPE) produced by the drug to reduce each of the sensory symptoms of neuropathic pain reproduced by the model (Jensen, T S and Baron, R. 2003. Pain 102: 1-8). Gabapentin, a common drug in its treatment, was used as a reference. CCI-vehicle group (distilled water 10 mL/kg, p.o.), amitriptyline groups (0.5, 1.5, 3, 10 mg/kg, p.o., AMT), gabapentin group (50 mg/kg, p.o., GBP); Sham CCI Group (distilled water 10 mL/kg, p.o.) The daily supply was given at repeated doses for 7 days until 14 days post-CCI, at which time another evaluation of the variables was performed. […] The experimental groups were formed for the dose-response curve study of paracetamol: CCI-vehicle group (distilled water 10 mL/kg, p.o.), Paracetamol groups (25, 50, 100, 200 mg/kg, p.o., P), Gabapentin group (50 mg/kg, p.o., GBP), CCI Sham Group (distilled water 10 mL/kg, p.o.). These doses of paracetamol have not been associated with liver or kidney damage in rats. […] To execute the dose-response curve mapping, the withdrawal thresholds after the treatments were converted into % of MPE. [Mechanical allodynia: MPE %=(post-treatment threshold−pre-treatment threshold)/(15 g-pre-treatment threshold)×100; Mechanical hypernociception: MPE % (Δ g post-treatment−Δ g pre-treatment)/50−Δ g pre-treatment)×100]. Subsequently, the same design was executed with the four doses of the combination calculated from the theoretical effective dose of each drug, this was calculated for each variable depending on the ED50 or ED30 according to the drug's capacity to obtain 50% or more of MPE that is 100% assumed as the total suppression of mechanical allodynia and mechanical hypernociception induced by CCI. […] In addition, concerning to the hypernociception intensity, the MPE values: 0.5 mg/kg=2.55%, 1.5 mg/kg=16.07% (p<0.05), 3 mg/kg=35.43% (p<0.001), 10 mg/kg=44.95% (p<0.001) vs GBP 50 mg/kg=63.47% (p<0.001), ED30=3.1032 (FIG. 8B). Amitriptyline inhibited both alterations of nociceptive processing but the potency of its effect was in the following order: mechanical allodynia>mechanical hypernociception. In neuropathic pain models there are controversies regarding the observation of the mechanical antiallodynic effect of amitriptyline. […] The result was similar in the model of spared neural injury (SNI), instead it reversed the responses to stimuli induced by chemical irritants induced by ATP and capsaicin, stimuli that are transmitted by the C fibers that express P2X and TRPV1 receptors and that are also involved in the transmission of thermal stimuli.

[3] = tested on: mechanical hypernociception in the ipsilateral hindpaw of CCI rats; assay: Sciatic nerve chronic constriction injury (CCI) model, mechanical hypernociception (electronic von Frey); type: in vivo, rat (Sprague Dawley); details: for MPE, intensity of mechanical hypernociception: day 14 post-CCI; for ED30, mechanical hypernociception: oral repeated doses, CCI rats, unit not given
Excerpt: as §1

[4] = Behavioral safety pharmacological tests (rota-rod, tone, posture, righting reflex, general state); type: in vivo, rat (Sprague Dawley); details: repeated minor doses (0.5-10 mg/kg p.o.) in the CCI model
Method: The rotating rod or rota-rod test was executed. The apparatus consists of a bar with a diameter of 2.5 cm divided into 4 compartments. The bar rotated at a constant speed of 22 rpm and the time it took for the animals to fall from the bar was evaluated. The animals were evaluated 1 h after the supply. The cut-off time used was 60 seconds. In addition, the tone, posture, righting reflex, corneal, vital signs and general state of the animal were explored from 30 minutes to 3 hours post-administration of the drugs separately and the combination. The corneal and tympanic reflex were explored by the tip of a thin paper to stimulate the cornea or auditory canal and the rapid response of opening and closing of the eyes or the mobilization of the ears in normal animals was observed. The evaluation of the posture and the righting reflex was based on the scale of Devor and Zalkind. Scale for posture: 0=normal posture, grooming supported on its hind legs; 1=moderate atony and ataxia, supports its weight, but can not rest on its hind legs; 2=supports its weight, but ataxia is severe; 3=maintains muscle tone, but can not support its weight, only small movements of intention; 4=atony, flaccidity, totally immobilized, no efforts to mobilize.

[5] = tested on: CCI-induced Wallerian degeneration-related changes in rat sciatic nerve; assay: Histopathological study of sciatic nerve sections (Wallerian degeneration) in CCI rats; details: GBP as positive control, 14 days post-CCI
[6] = 0.5 mg/kg p.o. daily for 7 days
[7] = 1.5 mg/kg p.o. daily for 7 days
[8] = po, CCI model, dose producing 50% reduction of control response, table values mean ± SD of the estimate, read-out: Oral administration ED50 (antiallodynic, experimental)
[9] = oral repeated doses, CCI rats, unit inferred, read-out: ED50, mechanical allodynia
[10] = 100 mg/kg p.o. daily for 7 days
[11] = 200 mg/kg p.o. daily for 7 days

CN(C)CCC=C1c2ccccc2CCc2ccccc21 [Amitriptyline, amitriptyline]
percentage of inhibition of phase II (% antinociception) ([1]; 0.1 mg/kg p.o., phase II (15-45 min)): −11.38% | percentage of inhibition of phase II (% antinociception) ([1]; 1 mg/kg p.o., phase II): 57.35% | percentage of inhibition of phase II (% antinociception) ([1]; 3 mg/kg p.o., phase II): 55.56% | percentage of inhibition of phase II (% antinociception) ([1]; 10 mg/kg p.o., phase II): 62.24% | inhibitory effect on phases of the formalin test ([1]; doses 0.1, 1, 3, 10 mg/kg p.o.): significant inhibitory effect was observed exclusively on phase II | licking/biting response in both phases ([1]; doses of 20, 25, 50 and 100 mg/kg): a significant dose-dependent inhibitory response pattern was not observed | Oral administration ED30 [1]: 0.66 ± 0.41 mg/kg | ED30 for the inhibition of phase II (experimental) [1]: 0.6677 | MPE, mechanical allodynia [2, 6]: 0.96% | MPE, mechanical allodynia [2, 7]: 1.31% | MPE, mechanical allodynia ([2]; 3 mg/kg p.o. daily for 7 days): 58.75% | MPE, mechanical allodynia ([2]; 10 mg/kg p.o. daily for 7 days): 65.97% | ED50 [2, 8]: 4.54 ± 2.28 mg/kg | ED50 [2, 9]: 4.54 mg/kg | withdrawal thresholds of the damaged paw to von Frey filaments stimulation ([2]; doses of 3 and 10 mg/kg p.o., repeated 7 days (p<0.05)): increased the withdrawal thresholds | MPE, intensity of mechanical hypernociception [3, 6]: 2.55% | MPE, intensity of mechanical hypernociception [3, 7]: 16.07% | MPE, intensity of mechanical hypernociception ([3]; 3 mg/kg p.o. daily for 7 days): 35.43% | MPE, intensity of mechanical hypernociception ([3]; 10 mg/kg p.o. daily for 7 days): 44.95% | intensity of mechanical hypernociception ([3]; dose of 1.5 (p<0.01), 3 and 10 mg/kg (p<0.001) p.o., repeated 7 days): significantly reduced the intensity of mechanical hypernociception | ED30, mechanical hypernociception [3]: 3.1032 | signs of sedation or catalepsy [4]: no signs of sedation or catalepsy

NCC1(CC(=O)O)CCCCC1 [GBP, gabapentin]
MPE, mechanical allodynia ([2]; 50 mg/kg p.o. daily for 7 days): 60.66% | MPE, intensity of mechanical hypernociception ([3]; 50 mg/kg p.o. daily for 7 days): 63.47% | Wallerian degeneration alterations in sciatic nerve (qualitative) [5]: show a decrease in these alterations

CC(=O)Nc1ccc(O)cc1 [Paracetamol, paracetamol]
percentage of inhibition of phase II (% antinociception) ([1]; 50 mg/kg p.o., phase II): 38.08% | percentage of inhibition of phase II (% antinociception) ([1]; 100 mg/kg p.o., phase II): 65.73% | percentage of inhibition of phase II (% antinociception) ([1]; 200 mg/kg p.o., phase II): 74.24% | effect on phase I of the formalin test ([1]; 300 mg/kg p.o. (printed 'the dose higher than 300 mg/kg')): significantly reduced phase I | percentage of inhibition of phase II (% antinociception) ([1]; 300 mg/kg p.o., phase II): 87.78% | effect on phase II of the formalin test ([1]; all doses used: 50, 100, 200, 300 mg/kg p.o.): significantly reduced phase II | Oral administration ED30 [1]: 32.35 ± 7.85 mg/kg | ED30 for the inhibition of phase II (experimental) [1]: 32.3578 | MPE, mechanical allodynia ([2]; 25 mg/kg p.o. daily for 7 days): 25.65% | MPE, mechanical allodynia ([2]; 50 mg/kg p.o. daily for 7 days): 60.96% | MPE, mechanical allodynia [2, 10]: 75.49% | MPE, mechanical allodynia [2, 11]: 75.45% | ED50 [2, 8]: 47.5 ± 14.1 mg/kg | ED50 [2, 9]: 47.5 mg/kg | antiallodynic effect ([2]; doses 25, 50, 100, 200 mg/kg p.o., repeated 7 days (p<0.05)): significant antiallodynic effect from doses of 50 mg/kg | MPE, intensity of mechanical hypernociception ([3]; 25 mg/kg p.o. daily for 7 days): 31.79% | MPE, intensity of mechanical hypernociception ([3]; 50 mg/kg p.o. daily for 7 days): 35.05% | MPE, intensity of mechanical hypernociception [3, 10]: 42.42% | MPE, intensity of mechanical hypernociception [3, 11]: 48.37% | mechanical antihypernociceptive effect ([3]; 25, 50, 100 (p<0.01) and 200 mg/kg (p<0.001) p.o., similar to GBP): mechanical antihypernociceptive effect in a dose-dependent manner | efficacy to reduce the intensity of mechanical hypernociception, 300 mg/kg versus 200 mg/kg ([3]; doses of 300 mg/kg compared with 200 mg/kg): less efficacy | ED30, mechanical hypernociception [3]: 22.5725

From patent US11590091B2, “Fixed dose composition of paracetamol: amitriptyline and method for the treatment of mixed cancer pain” (CENTRO DE INVESTIGACIÓN Y DESARROLLO DE MEDICAMENTOS CIDEM, priority 2018, dated 2023)
